Laboratory results from patent US12510537B2, “High throughput drug screening methods” (NERD BIO LLC, priority 2020, dated 2025).

Columns and labels:
GSK3beta = GSK3beta (Homo sapiens, UniProt P49841); experiment: UV-B induced denaturation of cell lysates, immunoblot of soluble fraction, GSK3beta; type: binding; conditions: lysates exposed to UV-B for 4 min; FIG. 29B
BCL6 = BCL6 (Homo sapiens, UniProt P41182); conditions: well-characterized Boehringer Ingelheim inhibitor; read-out: in vitro IC50; cited from earlier work

GSK3beta, sequence (P49841 whole entry, species assumed): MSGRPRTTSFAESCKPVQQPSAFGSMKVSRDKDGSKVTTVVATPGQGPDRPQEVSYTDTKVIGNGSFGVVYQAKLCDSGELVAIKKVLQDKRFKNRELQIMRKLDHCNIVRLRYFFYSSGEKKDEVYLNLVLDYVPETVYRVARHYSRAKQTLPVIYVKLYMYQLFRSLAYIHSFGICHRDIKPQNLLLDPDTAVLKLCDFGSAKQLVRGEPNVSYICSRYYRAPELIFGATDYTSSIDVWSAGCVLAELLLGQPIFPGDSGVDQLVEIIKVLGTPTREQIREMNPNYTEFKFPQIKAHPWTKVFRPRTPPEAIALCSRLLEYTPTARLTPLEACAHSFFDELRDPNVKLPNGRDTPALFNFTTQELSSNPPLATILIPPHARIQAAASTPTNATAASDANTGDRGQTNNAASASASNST

stabilization of GSK3beta protein from UV-B induced denaturation (GSK3beta)	Compound	IC50 (BCL6) [nM]
stabilization of the GSK3beta protein	Cc1c[nH]c(-c2cnc(NCCNc3ccc(C#N)cn3)nc2-c2ccc(Cl)cc2Cl)n1 [CHIR99021]	
	CNC(=O)COc1cc2cc(Nc3nc(N4CCC(C(=O)N(C)C)CC4)ncc3Cl)cc(OC)c2n(C)c1=O [BI-3812]	~3
